System: primary sarcoma organoids
Experiment: CELLTITER-GLO 3D ATP assay of drug treated primary sarcoma organoids
Assay type: cell-based
Settings: 3 days, after 7 days organoid culture
Method: The organoids were made using an immersion printing technique using a gelatin composition having a gelatin concentration of 10 mg/mL. To prepare the gelatin composition, gelatin was allowed to completely dissolve, and then the composition was cooled at 4° C. prior to use. The organoids were printed with a new bioprinter, BIO X™ available from CELLINK®, using a new type of printhead, a syringe pump printhead.
The resulting organoids were cultured for 7 days, and then subjected to various drug conditions in culture for 3 more days. Table 1 details the drug and concentration added to the standard culture media (high glucose DMEM supplemented with 10% fetal bovine serum, 1% L-glutamine, 1% penicillin/streptomycin). The organoids were then measured for viability using the CELLTITER-GLO® 3D ATP assay to measure ATP content via luminescence. The resulting signals, shown in FIG. 5, show a trend of organoid viability decreasing as drug concentration increased. Live/dead imaging corroborates the findings of the ATP assay.

Row | Structure (SMILES) | AVG Signal (lum), ATP assay (5 μM drug in culture media) [lum] | AVG Signal (lum), ATP assay (50 μM drug in culture media) [lum] | AVG Signal (lum), ATP assay (500 μM drug in culture media) [lum] | AVG Signal (lum), ATP assay (1 nM drug in culture media) [lum] | AVG Signal (lum), ATP assay (100 nM drug in culture media) [lum] | AVG Signal (lum), ATP assay (10 μM drug in culture media) [lum]
1 | Cc1ccc(NC(=O)c2ccc(CN3CCN(C)CC3)cc2)cc1Nc1nccc(-c2cccnc2)n1 [Imatinib] | 9.16E+06 | 6.56E+06 | 1.88E+04 | – | – | –
2 | COc1cccc2c1C(=O)c1c(O)c3c(c(O)c1C2=O)C[C@@](O)(C(=O)CO)C[C@@H]3O[C@H]1C[C@H](N)[C@H](O)[C@H](C)O1 [Doxorubicin] | – | – | – | 5.13E+06 | 2.62E+06 | 1.12E+06
